Measurements from PubChem BioAssay AID1259408 (Genetic Toxicology Data Bank (GENE-TOX), 2018).
Active and inactive are the calls of the source. No rule for the calls is given here.

Tested on: GENE-TOX genotoxicity assays, various organisms and cells
Test: GENE-TOX mutagenicity studies
Settings: for call: Assay Type: In vivo carcinogenicity studies
[1] = Species/Cell Type: Salmonella typhimurium (one or more of the five standard strains: TA98, TA100, TA1535, TA1537, and TA1538), Assay Type: Histidine reverse gene mutation, Ames assay, Assay Code: SAL-, Evaluation Type: Evaluation A (Pre-1980)
[2] = Species/Cell Type: Salmonella typhimurium (one or more of the five standard strains: TA98, TA100, TA1535, TA1537, and TA1538), Assay Type: Histidine reverse gene mutation, Ames assay, Assay Code: SALT, Evaluation Type: Evaluation A (Pre-1980)
[3] = Species/Cell Type: Bacillus subtilis (H17 vs M45), Assay Type: Rec-assay, spot test, DNA effects (bacterial DNA repair), Assay Code: REW+, Evaluation Type: Evaluation A (Pre-1980)
[4] = Species/Cell Type: Salmonella typhimurium (one or more of the five standard strains: TA98, TA100, TA1535, TA1537, and TA1538), Assay Type: Histidine reverse gene mutation, Ames assay, Assay Code: SAL+*, Activation: With metabolic activation, Evaluation Type: Evaluation A (Pre-1980)
[5] = Species/Cell Type: Bacillus subtilis (H17 vs M45), Assay Type: Rec-assay, spot test, DNA effects (bacterial DNA repair), Assay Code: REWT, Evaluation Type: Evaluation A (Pre-1980)
[6] = Species/Cell Type: Bacillus subtilis (H17 vs M45T), Assay Type: Rec-assay, spot test, DNA effects (bacterial DNA repair), Assay Code: REXT, Evaluation Type: Evaluation A (Pre-1980)
[7] = Species/Cell Type: Nonhuman, Assay Type: Sister-chromatid exchange (SCE) in vitro, Assay Code: SC2+, Evaluation Type: Evaluation B (Post-1980)
[8] = Species/Cell Type: Salmonella typhimurium (one or more of the five standard strains: TA98, TA100, TA1535, TA1537, and TA1538), Assay Type: Histidine reverse gene mutation, Ames assay, Assay Code: SAL+, Evaluation Type: Evaluation A (Pre-1980)
[9] = Species/Cell Type: Mouse, Sex: Male, Assay Type: Sperm morphology, Assay Code: SPI-, Evaluation Type: Evaluation A (Pre-1980)
[10] = Species/Cell Type: Nonhuman, Assay Code: CCGT, Evaluation Type: Evaluation A (Pre-1980)
[11] = Species/Cell Type: Mammalian polychromatic erythrocytes, Assay Type: Micronucleus test, chromosome aberrations, Assay Code: MNTT, Evaluation Type: Evaluation A (Pre-1980)
[12] = Species/Cell Type: Nonhuman, Assay Code: CCG+, Evaluation Type: Evaluation A (Pre-1980)
[13] = Species/Cell Type: Nonhuman, Assay Type: Sister-chromatid exchange (SCE) in vitro, Assay Code: SC2+D, Dose Response: With dose response, Evaluation Type: Evaluation B (Post-1980)

NC12CC3CC(CC(C3)C1)C2
mutagenic call (Species/Cell Type: Fischer rat embryo (RLV/1706) cells, Assay Type: Cell transformation, viral enhanced, Assay Code: CTR-, Evaluation Type: Evaluation A (Pre-1980)): inactive; negative

CC(C)c1ccccc1
mutagenic call (Species/Cell Type: Saccharomyces cerevisiae, Assay Type: Mitotic recombination or gene conversion, Assay Code: YEH-, Evaluation Type: Evaluation A (Pre-1980)): inactive; negative
mutagenic call [1]: inactive; negative

NC(=O)N(CC(=O)O)N=O
mutagenic call [2]: no conclusion

[Cl][Tl]
mutagenic call (Species/Cell Type: Syrian hamster embryo (SA7/SHE) cells, Assay Type: Cell transformation, viral enhanced, Assay Code: CT7+, Evaluation Type: Evaluation A (Pre-1980)): active; positive

O=[N+]([O-])c1ccccc1O
mutagenic call (Species/Cell Type: Allium cepa, Assay Type: Chromosome aberrations, Assay Code: ALC-, Evaluation Type: Evaluation A (Pre-1980)): inactive; negative

O=S1(=O)OC(c2cc(Br)c(O)c(Br)c2)(c2cc(Br)c(O)c(Br)c2)c2ccccc21
mutagenic call [2]: no conclusion

CN(C)C(=S)SSC(=S)N(C)C
mutagenic call [3]: active; positive
mutagenic call (Species/Cell Type: Mammalian polychromatic erythrocytes, Assay Type: Micronucleus test, chromosome aberrations, Assay Code: MNT+, Evaluation Type: Evaluation A (Pre-1980)): active; positive

CN(C)CCCN1c2ccccc2Sc2ccc(C(F)(F)F)cc21
mutagenic call (Species/Cell Type: Nonhuman bone marrow, Assay Type: Chromosome aberrations, in vivo, Assay Code: CY#-, Evaluation Type: Evaluation A (Pre-1980)): inactive; negative
mutagenic call (Species/Cell Type: Nonhuman, Assay Type: Chromosome aberrations in vitro, Assay Code: CY&+, Evaluation Type: Evaluation A (Pre-1980)): active; positive
mutagenic call (Species/Cell Type: Rodents, Sex: Male, Assay Type: Dominant lethal test, Assay Code: DLT+, Evaluation Type: Evaluation A (Pre-1980)): active; positive
mutagenic call (Species/Cell Type: Salmonella typhimurium, Assay Type: Forward and reverse gene mutation, host-mediated assay, Assay Code: HMA-, Evaluation Type: Evaluation A (Pre-1980)): inactive; negative

Cc1ccc(N2CCN(C)CC2)c2c(=O)c3ccc(Cl)cc3sc12
mutagenic call [2]: no conclusion

C1=Cc2c(cc3ccc4cccc5ccc2c3c45)CC1
mutagenic call [4]: active; positive

CCN(Cc1cccc(S(=O)(=O)O)c1)c1ccc(C(=C2C=CC(=[N+](CC)Cc3cccc(S(=O)(=O)O)c3)C=C2)c2ccc(O)cc2S(=O)(=O)[O-])cc1
mutagenic call [5]: no conclusion
mutagenic call [6]: no conclusion
mutagenic call (Species/Cell Type: Mammalian polychromatic erythrocytes, Assay Type: Micronucleus test, chromosome aberrations, Assay Code: MNT+, Evaluation Type: Evaluation B (Post-1980)): active; positive
mutagenic call (Species/Cell Type: Saccharomyces cerevisiae, Assay Type: Mitotic recombination or gene conversion, Assay Code: YEC-, Evaluation Type: Evaluation A (Pre-1980)): inactive; negative
mutagenic call [1]: inactive; negative

CCC(C)=O
mutagenic call [5]: no conclusion
mutagenic call (Species/Cell Type: Mammalian polychromatic erythrocytes, Assay Type: Micronucleus test, chromosome aberrations, Assay Code: MNT-, Evaluation Type: Evaluation B (Post-1980)): inactive; negative

CCOP(=S)(OCC)SC1OCCOC1SP(=S)(OCC)OCC (stereo unspecified)
call (Species/Cell Type: Nonhuman, Assay Code: CCG-, Evaluation Type: Evaluation A (Pre-1980)): inactive; negative

O=NN1CCCC1=O
mutagenic call [3]: active; positive

CN=C1C=CC(=C(c2ccc(N(C)C)cc2)c2ccc(N(C)C)cc2)C=C1
mutagenic call [3]: active; positive
mutagenic call [6]: no conclusion

O=S(=O)(O)c1ccc(O)c2ncccc12
mutagenic call [4]: active; positive

O=[N+]([O-])c1ccc(Nc2ccc(N=C=S)cc2)cc1
mutagenic call (Species/Cell Type: Salmonella typhimurium, Assay Type: Forward and reverse gene mutation, body fluid assay, Assay Code: BFU+, Evaluation Type: Evaluation A (Pre-1980)): active; positive

O.O.O.O.O.[Cd+2].[Cd+2].[Cl-].[Cl-].[Cl-].[Cl-]
mutagenic call [7]: active; positive

O=C1c2cccc(O)c2C(=O)c2c(NCCNCCO)ccc(NCCNCCO)c21
mutagenic call [7]: active; positive

O=[N+]([O-])c1cccc2cc[nH]c12
mutagenic call [8]: active; positive

ClC(Cl)=C(Cl)Cl
mutagenic call (Species/Cell Type: Fischer rat embryo (RLV/1706) cells, Assay Type: Cell transformation, viral enhanced, Assay Code: CTR+, Evaluation Type: Evaluation A (Pre-1980)): active; positive
call (Species/Cell Type: Nonhuman, Assay Code: CCG+L, Evaluation Type: Evaluation A (Pre-1980)): active; positive
mutagenic call (Species/Cell Type: Saccharomyces cerevisiae, Assay Type: Mitotic recombination or gene conversion, Assay Code: YEC+, Evaluation Type: Evaluation A (Pre-1980)): active; positive
mutagenic call (Species/Cell Type: Saccharomyces cerevisiae, Assay Type: Mitotic recombination or gene conversion, Assay Code: YEH+, Evaluation Type: Evaluation A (Pre-1980)): active; positive
mutagenic call (Species/Cell Type: Saccharomyces cerevisiae, Assay Type: Reverse gene mutation, Assay Code: YER+, Evaluation Type: Evaluation A (Pre-1980)): active; positive
mutagenic call (Species/Cell Type: Syrian hamster embryo (SA7/SHE) cells, Assay Type: Cell transformation, viral enhanced, Assay Code: CT7-, Evaluation Type: Evaluation A (Pre-1980)): inactive; negative

[N-]=[N+]=O
mutagenic call (Species/Cell Type: Chinese hamster lung (V79) cells, Assay Type: Forward gene mutation at the HPRT or ouabain locus, Assay Code: V79+, Evaluation Type: Evaluation A (Pre-1980)): active; positive
mutagenic call [9]: inactive; negative
call [10]: no conclusion
mutagenic call (Species/Cell Type: Nonhuman, Assay Type: Sister-chromatid exchange (SCE) in vitro, Assay Code: SC2T, Evaluation Type: Evaluation B (Post-1980)): no conclusion
mutagenic call (Species/Cell Type: Tradescantia species, Assay Type: Gene mutation, Assay Code: TRM+D, Dose Response: With dose response, Evaluation Type: Evaluation A (Pre-1980)): active; positive

COc1ccc(O)cc1
mutagenic call (Species/Cell Type: Allium cepa, Assay Type: Chromosome aberrations, Assay Code: ALC+, Evaluation Type: Evaluation A (Pre-1980)): active; positive

c1cncc([C@@H]2CCCN2)c1
mutagenic call [7]: active; positive

O=[N+]([O-])c1ccc(Oc2ccc(Cl)cc2Cl)cc1
mutagenic call [11]: no conclusion
call [12]: active; positive

CC(=O)Nc1nc(-c2ccc([N+](=O)[O-])o2)cs1
mutagenic call [3]: active; positive
mutagenic call (Species/Cell Type: Escherichia coli WP2, Assay Type: Tryptophan reverse gene mutation, Assay Code: WP2+, Evaluation Type: Evaluation A (Pre-1980)): active; positive
mutagenic call (Species/Cell Type: Escherichia coli WP2 UVRA, Assay Type: Tryptophan reverse gene mutation, Assay Code: WPU-, Evaluation Type: Evaluation A (Pre-1980)): inactive; negative
call [12]: active; positive
mutagenic call [13]: active; positive
mutagenic call [8]: active; positive

CCOC(=O)N(OC(C)=O)C(C)=O
mutagenic call (Species/Cell Type: Drosophila melanogaster, Assay Type: Sex-linked recessive lethal gene mutation, Assay Code: SRL+, Evaluation Type: Evaluation A (Pre-1980)): active; positive
mutagenic call (Species/Cell Type: Drosophila melanogaster, Sex: Male, Assay Type: Heritable translocation test, chromosome aberrations, Assay Code: DHTT, Evaluation Type: Evaluation A (Pre-1980)): no conclusion

OC(O)C(Cl)(Cl)Cl
mutagenic call (Species/Cell Type: Aspergillus nidulans, Assay Type: Aneuploidy, chromosome aberrations, Assay Code: ASN+, Evaluation Type: Evaluation A (Pre-1980)): active; positive
mutagenic call (Species/Cell Type: Aspergillus nidulans, Assay Type: Mitotic recombination, Assay Code: ASG-, Evaluation Type: Evaluation A (Pre-1980)): inactive; negative
mutagenic call [11]: no conclusion
mutagenic call [9]: inactive; negative
mutagenic call (Species/Cell Type: Neurospora crassa, Assay Type: Aneuploidy, chromosome aberrations, Assay Code: NEN-, Evaluation Type: Evaluation A (Pre-1980)): inactive; negative
call [10]: no conclusion
mutagenic call [8]: active; positive

BrCC(Br)CBr
mutagenic call [8]: active; positive

C=CC=O
mutagenic call [13]: active; positive

Cc1cc(C)c(S(=O)(=O)O)cc1N=Nc1cc(S(=O)(=O)O)c2ccccc2c1O
mutagenic call [5]: no conclusion
mutagenic call [6]: no conclusion
mutagenic call [1]: inactive; negative
